For data set [1] the following is noted: Matschiner et al., 1972; cited from earlier work.
In data set [2] the target is T1, EGFR (Homo sapiens, UniProt P00533).
T1 construct: Two human cell lines that overexpress non-mutated EGFR were used; endogenous in cells; host or cells: A431 vulvar carcinoma; HN5 head and neck carcinoma
Nature of the data set: Western blot of phosphorylated EGFR in A431 / HN5 cells. It is filed as cell-based. The conditions noted are these: for concentration at which activation of EGFR was seen / activation (phosphorylation) of EGFR: 2 hours exposure; for activation (phosphorylation) of EGFR: concentrations up to 1000 μM; for concentration at which activation was seen, converted to mass concentration: K3: EGFR, Akt and Stat-3, K1: EGFR and Akt. The procedure: FIG. 1A-1C. Effects of Vitamins K1, K2 and K3 (VK1, VK2, VK3) on the phosphorylation of EGFR (A), AKT (B) and Stat-3 (C) in human A431 vulvar carcinoma cells. […] Cells were exposed to the indicated concentrations of VK1, VK2 and VK3 for 2 hours. Following exposure, cells were washed twice with cold phosphate buffered saline (PBS) solution, and lysed with 50 μl of lysis buffer. Equal amounts of lysate (30 μg of protein) were subjected to a 7.5% or a 12% SDS-PAGE. EGFR, phos-EGFR, AKT, phos-AKT, Stat-3, and phos-Stat-3 were detected by immunoblotting analysis using corresponding antibodies.
FIG. 2. […] After exposure, cells were washed twice with cold PBS solution, and lysed with 50 μl of lysis buffer. Equal amounts of lyaste (30 μg of protein) were subjected to a 7.5% SDS-PAGE. EGFR and phosphorylated EGFR were detected by immunoblotting analysis using corresponding antibodies.
FIG. 4A-4B. […] Cells were exposed to 0.1 mM VK3 for 1 hour. Following exposure, cells were washed three times with cold medium and then reincubated in VK3-free fresh medium with 10% fetal bovine serum for the indicated times. Cells were harvested and lysed with lysis buffer. Equal amounts of cell lysate were subjected on 7.5% SDS-PAGE (A). The total EGFR and phosphorylated EGFR (p-EGFR) were detected by immunoblot analysis using corresponding antibodies. Control (Con) means cells were not exposed to VK3. The relative p-EGFR was expressed as the intensity of p-EGFR bands in each time points measured by a laser densitometry compared with that in control as one (B).
(§1) Two human cell lines that overexpress non-mutated EGFR were used: A431 vulvar carcinoma and HN5 head and neck carcinoma. Cells were exposed to different concentrations of different vitamin K analogs in the presence of one of three EGFR inhibitors: the anti-EGFR monoclonal antibody cetuximab (Erbitux®) and the EGFR tyrosine kinase inhibitors (TKIs) erlotinib (Tarceva®) and gefitinib (Iressa®). Cytotoxicity was assessed by cell counting. Cells were lysed and the effects of different vitamin K analogs on activation of EGFR, the kinase Akt, and Signal Transducer and Activator of Transcription-3 (STAT-3) were assessed by western blot analysis using antibodies for the phosphorylated (activated) forms of EGFR, Akt and Stat-3. […] Vitamins K1, K2, and K3 were purchased from Sigma-Aldrich (St Louis, Mo.). Activation of EGFR, Akt and Stat-3 were assessed in the presence and absence of anti-EGFR treatments of the cells. Activation of EGFR by vitamin K analog was also assessed using mouse skin, which was homogenized and lysed after treatment with the vitamin K analog. Phosphatase activity was determined using pNPP (4-nitrophenyl phosphate disodium) as a substrate.

A further data set has as its system Akt. The data set is described as follows: Western blot of phosphorylated Akt in A431 / HN5 cells. It is filed as cell-based, human. The conditions noted are these: for concentration at which activation of Akt was seen / activation (phosphorylation) of Akt: A431 cells, 2 hours exposure; for activation (phosphorylation) of Akt: concentrations up to 1000 μM. How it is done:
(§2) FIG. 1A-1C. Effects of Vitamins K1, K2 and K3 (VK1, VK2, VK3) on the phosphorylation of EGFR (A), AKT (B) and Stat-3 (C) in human A431 vulvar carcinoma cells. A431 cells (1×10^6 cells/well) were plated in a 6-well plate, and incubated in RPMI-1640 medium with 10% serum overnight. Cells were exposed to the indicated concentrations of VK1, VK2 and VK3 for 2 hours. Following exposure, cells were washed twice with cold phosphate buffered saline (PBS) solution, and lysed with 50 μl of lysis buffer. Equal amounts of lysate (30 μg of protein) were subjected to a 7.5% or a 12% SDS-PAGE. EGFR, phos-EGFR, AKT, phos-AKT, Stat-3, and phos-Stat-3 were detected by immunoblotting analysis using corresponding antibodies. Vitamin K3 stimulated EGFR, Akt and Stat-3.
(§3) Two human cell lines that overexpress non-mutated EGFR were used: A431 vulvar carcinoma and HN5 head and neck carcinoma. Cells were exposed to different concentrations of different vitamin K analogs in the presence of one of three EGFR inhibitors: the anti-EGFR monoclonal antibody cetuximab (Erbitux®) and the EGFR tyrosine kinase inhibitors (TKIs) erlotinib (Tarceva®) and gefitinib (Iressa®). Cytotoxicity was assessed by cell counting. Cells were lysed and the effects of different vitamin K analogs on activation of EGFR, the kinase Akt, and Signal Transducer and Activator of Transcription-3 (STAT-3) were assessed by western blot analysis using antibodies for the phosphorylated (activated) forms of EGFR, Akt and Stat-3. Polyclonal antibodies of anti-EGFR, anti-phos-EGFR (Tyr1068), anti-AKT, anti-phos-AKT (Ser473), anti-Stat-3, and anti-phos-Stat-3 (Tyr-705) were purchased from Cell Signaling (Beverly, Mass.). Vitamins K1, K2, and K3 were purchased from Sigma-Aldrich (St Louis, Mo.). Activation of EGFR, Akt and Stat-3 were assessed in the presence and absence of anti-EGFR treatments of the cells. Activation of EGFR by vitamin K analog was also assessed using mouse skin, which was homogenized and lysed after treatment with the vitamin K analog. Phosphatase activity was determined using pNPP (4-nitrophenyl phosphate disodium) as a substrate.

For the next data set, the system named is Stat-3. The data set is described as follows: Western blot of phosphorylated Stat-3 in A431 / HN5 cells. Format: cell-based, human. Conditions: for activation (phosphorylation) of Stat-3: concentrations up to 1000 μM. How it is done:
as §2, §3

Data set [3] deals with A431 vulvar carcinoma cells. The data set is described as follows: Erlotinib-induced cell growth inhibition / cytotoxicity by cell counting. Format: cell-based, human. How it is done:
as §1

Data set [4] addresses EGFR (Mus musculus, UniProt Q01279). Nature of the data set: EGFR phosphorylation in mouse skin tissue (immunoblot).
Protocol: Effect of Vitamin K3 (menadione) on erlotinib-induced inhibition of EGFR phosphorylation in mouse skin. […] Mice were administrated P.O. daily 50 mg/kg of erlotinib; mouse skin was smeared with VK3 15 mM ethanol solution. After treatment, the mice were sacrificed and skin tissue was taken. 100 mg skin tissue was used for the preparation of tissue extracts. Equal amounts of skin tissue extracts (80 μg of protein) were subjected on a 7.5% SDS-PAGE. Total EGFR and p-EGFR were detected by immunoblot analysis.
Effect of VK3, Cream B and Cream VK on EGFR phosphorylation in mouse skin tissue. The mice were smeared with 30 mM or 100 mM VK3 (in ethanol), or with the same doses of Cream B or Cream VK. Following treatment, mice were sacrificed and skin tissues were taken for the preparation of tissue extracts. Equal amounts of tissue extracts (80 μg of protein) were subjected on a 7.5% of SDS-PAGE. Total EGFR and p-EGFR were detected by immunoblot analysis using polyclonal anti-EGFR and p-EGFR antibodies. Cream B is an over the counter product (Baby Cakes) containing Vitamin K3 according to its label; the concentration is not specified. Cream VK is a 5% Vitamin K cream available over the counter.
The effect of Vitamin K3 was examined in the skin of animals receiving the EGFR TK inhibitor erlotinib 100 mg/kg×10 days (days 1-10). […] The skin of mice was smeared with Vitamin K3 in ethanol (15 mM BID×5 days on days 5 to 10). The effect of Vitamin K3 was compared to that of two over-the-counter skin creams. Cream B (Baby Cakes) is an over-the-counter product containing Vitamin K3 according to its label; the concentration is not specified. Cream VK is a 5% Vitamin K cream available over-the-counter.
The conditions of data set [5]: cited from earlier work.
The next data set deals with phosphatase activity. Nature of the data set: Phosphatase activity in A431 cell extracts with pNPP substrate. Format: cell-based, human. How it is done: FIG. 5. […] A431 cells were exposed to 0.1 mM VK3 for 1 hour. After exposure, cells were washed three times with cold medium and then reincubated in VK3-free medium with 10% fetal bovine serum for the indicated time. Cells were harvested and cell extracts were prepared for the assay of phosphatase activity using pNPP (4-nitrophenyl phosphate disodium) as a substrate. Control (Con) means the phosphatase activity in cells without exposure to VK3. The relative phosphatase activity was expressed as compared with that in control as one. VK3-induced phosphatase inhibition is reversible following removal of VK3.
as §1

Molecules are shown by their SMILES. “Also recorded” adds a separate entry of the source.

Sequence of EGFR (Mus musculus, UniProt Q01279) (Q01279 25-1210): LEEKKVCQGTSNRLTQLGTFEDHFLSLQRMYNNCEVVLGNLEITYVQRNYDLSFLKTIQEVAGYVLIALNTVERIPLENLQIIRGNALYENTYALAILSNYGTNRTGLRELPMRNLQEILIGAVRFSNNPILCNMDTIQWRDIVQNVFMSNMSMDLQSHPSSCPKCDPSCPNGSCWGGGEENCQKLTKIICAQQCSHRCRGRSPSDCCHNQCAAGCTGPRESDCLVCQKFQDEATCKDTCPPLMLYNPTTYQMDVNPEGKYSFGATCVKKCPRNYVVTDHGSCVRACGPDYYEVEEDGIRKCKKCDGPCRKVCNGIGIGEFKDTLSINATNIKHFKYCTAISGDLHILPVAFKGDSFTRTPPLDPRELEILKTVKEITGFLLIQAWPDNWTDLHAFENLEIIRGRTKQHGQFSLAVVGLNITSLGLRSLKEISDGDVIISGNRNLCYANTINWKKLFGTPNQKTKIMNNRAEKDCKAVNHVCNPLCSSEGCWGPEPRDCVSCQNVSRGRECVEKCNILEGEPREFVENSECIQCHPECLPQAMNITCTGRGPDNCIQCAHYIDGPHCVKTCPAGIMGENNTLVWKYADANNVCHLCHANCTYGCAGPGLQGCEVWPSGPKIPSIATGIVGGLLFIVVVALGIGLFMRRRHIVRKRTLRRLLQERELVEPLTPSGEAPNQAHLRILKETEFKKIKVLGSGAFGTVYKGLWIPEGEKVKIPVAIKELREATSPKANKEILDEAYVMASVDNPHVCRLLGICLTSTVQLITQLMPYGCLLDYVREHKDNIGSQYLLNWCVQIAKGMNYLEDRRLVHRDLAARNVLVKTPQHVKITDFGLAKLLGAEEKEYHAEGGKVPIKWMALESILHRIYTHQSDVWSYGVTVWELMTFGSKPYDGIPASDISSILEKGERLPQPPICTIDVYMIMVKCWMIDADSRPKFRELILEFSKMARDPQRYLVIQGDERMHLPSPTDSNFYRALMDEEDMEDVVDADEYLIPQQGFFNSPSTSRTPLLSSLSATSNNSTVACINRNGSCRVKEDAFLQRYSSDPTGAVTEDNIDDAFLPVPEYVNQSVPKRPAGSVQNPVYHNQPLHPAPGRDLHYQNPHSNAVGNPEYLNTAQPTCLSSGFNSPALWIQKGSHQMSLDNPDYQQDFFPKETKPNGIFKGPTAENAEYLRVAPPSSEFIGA
T1 sequence (P00533 25-1210): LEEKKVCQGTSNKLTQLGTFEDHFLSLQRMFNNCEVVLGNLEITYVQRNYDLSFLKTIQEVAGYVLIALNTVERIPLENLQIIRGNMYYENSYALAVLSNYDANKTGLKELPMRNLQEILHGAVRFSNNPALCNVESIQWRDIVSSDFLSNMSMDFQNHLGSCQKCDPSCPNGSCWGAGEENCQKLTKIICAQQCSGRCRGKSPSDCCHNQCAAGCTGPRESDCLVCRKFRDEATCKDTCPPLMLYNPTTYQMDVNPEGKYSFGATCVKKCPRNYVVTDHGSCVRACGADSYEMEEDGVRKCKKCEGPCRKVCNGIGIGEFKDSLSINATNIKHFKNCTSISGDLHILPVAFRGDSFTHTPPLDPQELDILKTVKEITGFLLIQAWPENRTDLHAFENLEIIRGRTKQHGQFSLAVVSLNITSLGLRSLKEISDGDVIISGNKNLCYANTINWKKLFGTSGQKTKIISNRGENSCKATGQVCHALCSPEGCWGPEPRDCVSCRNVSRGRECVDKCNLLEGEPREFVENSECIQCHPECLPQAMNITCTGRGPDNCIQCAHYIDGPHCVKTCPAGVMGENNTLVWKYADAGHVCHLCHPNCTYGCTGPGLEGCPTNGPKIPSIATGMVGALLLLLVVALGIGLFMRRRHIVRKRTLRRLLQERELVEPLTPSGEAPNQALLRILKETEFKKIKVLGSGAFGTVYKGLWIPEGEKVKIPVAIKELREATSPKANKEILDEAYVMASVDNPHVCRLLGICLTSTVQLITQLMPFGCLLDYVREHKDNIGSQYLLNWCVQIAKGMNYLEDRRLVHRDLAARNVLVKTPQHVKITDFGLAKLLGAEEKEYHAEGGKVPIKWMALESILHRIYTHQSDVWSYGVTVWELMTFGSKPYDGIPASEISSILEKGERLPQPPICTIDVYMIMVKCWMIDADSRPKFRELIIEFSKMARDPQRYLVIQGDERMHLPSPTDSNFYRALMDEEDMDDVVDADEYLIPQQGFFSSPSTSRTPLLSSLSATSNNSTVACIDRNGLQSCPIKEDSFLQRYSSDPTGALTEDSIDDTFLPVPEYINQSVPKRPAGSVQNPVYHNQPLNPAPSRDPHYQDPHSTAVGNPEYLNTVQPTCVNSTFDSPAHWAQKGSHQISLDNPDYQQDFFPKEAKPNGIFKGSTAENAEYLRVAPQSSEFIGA

For `CC1=C(C/C=C(/C)CCC[C@H](C)CCC[C@H](C)CCCC(C)C)C(=O)c2ccccc2C1=O` (single isomer, unassigned) [cis isomer], in data set [1], the biological activity entry is “little or no biological activity”.

Take `CC1=C(C/C=C(\C)CCC[C@H](C)CCC[C@H](C)CCCC(C)C)C(=O)c2ccccc2C1=O` [Vitamin K1, 2-methyl-3-phytyl-1,4-naphthoquinone]: at EGFR [2] (A431 cells), the “concentration at which activation of EGFR was seen” value turned out to be 1000 µM; the “activation (phosphorylation) of EGFR” value is on record as “activated”; the “concentration at which activation was seen, converted to mass concentration” value was “about 450 μg/ml”. For the same molecule, the “concentration at which activation of Akt was seen” value in the data set on Akt is 1000 µM.

With `CC(C)=CCC/C(C)=C/CC/C(C)=C/CC/C(C)=C/CC/C(C)=C/CC/C(C)=C/CC1=C(C)C(=O)c2ccccc2C1=O` [Vitamin K2, 2-methyl-3-hexaprenyl-1,4-naphthoquinone], the “activation (phosphorylation) of Stat-3” value in the data set on Stat-3 (A431 cells, 2 hours exposure) is listed as “little or no effect”. Moreover, the “activation (phosphorylation) of EGFR” value on EGFR [2] (A431 cells) was “little or no effect”. Further, in the data set on Akt, the “activation (phosphorylation) of Akt” value was “little or no effect”.

For the molecule `CC1=CC(=O)c2ccccc2C1=O` [Vitamin K3, 2-methyl-1,4-naphthoquinone], in the data set on Stat-3 (A431 cells, 2 hours exposure), the “concentration at which activation of Stat-3 was seen” value worked out at 100 µM and the “activation (phosphorylation) of Stat-3” value is on record as “stimulated; also recorded: activated”. In the data set with Stat-3 (A431 or HN5 cells, erlotinib 2 μM, at 0.1 and 0.5 mM vitamin K3), the “activation of Stat-3 in the presence of erlotinib” value is reported as “activated”. Besides, the “activation of Stat-3 in the presence of cetuximab” value in the data set with Stat-3 (Vitamin K3 0.1 and 0.5 mM) is reported as “activated”. Besides, the “decrease of cytotoxicity of the EGFR inhibitor (erlotinib)” value in data set [3] (co-incubation with Vitamin K3 50-100 μM, 72 hours, cell counting) is 4-6 fold. For the same molecule, the “reversibility of induced EGFR phosphorylation” value on EGFR [2] (A431 cells, 0.1 mM VK3 1 hour, then VK3-free medium) is given as “reversible”. For the same molecule, at EGFR [2] (A431 cells), the “concentration at which activation of EGFR was seen” value was found to be 100 µM; the “activation (phosphorylation) of EGFR” value was “stimulated; also recorded: activated”; the “concentration at which activation was seen, converted to mass concentration” value was “about 17 μg/ml”. The “activation of EGFR in the presence of erlotinib” value at EGFR [2] (A431 or HN5 cells, serum free medium, erlotinib 2 μM, Vitamin K3 0.01-0.5 mM, 2 hours) was “prevents the inhibition of EGFR phosphorylation; also recorded: activated”. In addition, on EGFR [2] (Vitamin K3 0.1 and 0.5 mM), the “activation of EGFR in the presence of cetuximab” value is recorded as “activated”. The “p-EGFR in skin of mice receiving erlotinib” value on EGFR [4] (erlotinib P.O. daily, skin smeared with Vitamin K3 15 mM in ethanol BID x 5 days (days 5 to 10)) is listed as “rescues; also recorded: significant p-EGFR expression”. Also, on EGFR [4] (skin smeared with 30 mM or 100 mM (VK3 in ethanol) x 3 doses every 12 hours, same doses of creams), the “EGFR phosphorylation in mouse skin tissue” value is given as “activates EGFR”. In addition, the “activation of EGFR in normal mouse skin” value on EGFR [4] (topical application) is “activated”. Besides, in the data set with Akt, the “concentration at which activation of Akt was seen” value was determined as 100 µM and the “activation (phosphorylation) of Akt” value is listed as “stimulated; also recorded: activated”. The “activation of Akt in the presence of erlotinib” value in the data set with Akt (A431 or HN5 cells, erlotinib 2 μM, at 0.5 mM vitamin K3) is on record as “activated”. The “activation of Akt in the presence of cetuximab” value in the data set with Akt (Vitamin K3 0.1 and 0.5 mM) was “activated”. In addition, the “dermatitis on topical administration” value in data set [5] (Page et al., 1942) was “can cause dermatitis”. For the same molecule, in data set [5] (Ulbrich, 1961), the “vesiculation of the skin on topical administration” value is reported as “vesiculation of the skin”. Also, the “effect on phosphatase activity” value in the data set on phosphatase activity (A431 cells, 0.1 mM VK3 for 1 hour, pNPP substrate) is recorded as “inhibits phosphatase activity; also recorded: inhibiting phosphatase activity”. The “time after removal at which phosphatase inhibition is reversed” value with phosphatase activity (A431 cells, reincubation in VK3-free medium) is 2 to 3 h. In the data set on phosphatase activity (following removal of VK3), the “reversibility of phosphatase inhibition” value is recorded as “reversible”.

Take `C#Cc1cccc(Nc2ncnc3cc(OCCOC)c(OCCOC)cc23)c1` [erlotinib]: the “effect of exposure on cells” value in data set [3] (A431 cells, erlotinib alone) was “cell death”.

These data come from US8283382B2, “Vitamin K for prevention and treatment of skin rash secondary to anti-EGFR therapy” (Albert Einstein College of Medicine of Yeshiva University, priority 2005, dated 2012).
